Source: US20150150892A1, “METHODS AND PRODUCTS RELATED TO LUNG CANCER” (Massachusetts Institute of Technology, priority 2012, published 2015)

Legend:
[1] = test system: KrasLSL-G12D/wt (K) lung tumors; assay: MicroCT lung tumor volume in K mice; format: in vivo, mouse; conditions: single 1 mg/kg dose, 20 weeks post infection
Excerpt: FIG. 3: Bortezomib induces acute lung tumor regression in KrasLSL-G12D/wt;p53flox/flox (KP) mice, but not in KrasLSL-G12D/wt (K) mice. (3A and 3C) representative microCT images (n=6) of KP (3A) and K (3C) lung tumors prior to pre-treatment (D0) and 4 days (D4) after a single dose of vehicle control or bortezomib. (3 B and 3D) Quantification of tumor volume change (D4 compared with D0) in control- and bortezomib-treated mice. Each bar represents an individual tumor. P<10^−6 in KP mice (3B); P>0.05 in K mice (3D).
The Massachusetts Institute of Technology (Cambridge, Mass.) Institutional Animal Care and Use Committee approved all animal studies and procedures. To initiate lung tumors, cohorts of K or KP mice of 129svJae background were infected with 2.5×10^7 plaque-forming units of Adeno-Cre (University of Iowa) by intranasal inhalation, as described previously (2, 28). Mice were given bortezomib (LC Labs) in PBS [0.5% dimethylsulfoxide (DMSO)] at 1 mg/kg body weight i.v., as indicated. […]
At indicated time points, mice were scanned for 15 min under isoflurane anesthesia, using a small animal eXplore Locus microCT (GE Healthcare) at 45-μm resolution, 80 kV, with 450-mA current (47). […] Mice were imaged for 60 seconds, and signals in the lung were quantified using Xenogen software. […]

K lung tumors = assay: CC3 immunohistochemistry in K lung tumors; format: in vivo, mouse; conditions: KrasLSL-G12D/wt mice, all time points assayed
Protocol: FIG. 4: Bortezomib induces apoptosis in KP lung tumors. (4A and 4B) H&E and CC3 immunohistochemistry staining (×200) in vehicle control- and bortezomib-treated KP (4A) and K (4B) lung tumors. (4C and 4D) quantification of CC3-positive cells in bortezomib-treated KP (4C) and K (4D) lung tumors at indicated time points. “0 hour” represents vehicle control-treated tumors. Error bars are SD (n>10 for each time point).
Mice were sacrificed by carbon dioxide asphyxiation. Lungs were inflated with 4% formalin (neutral buffered formalin), fixed overnight, and transferred to 70% ethanol. Lung lobes were embedded in paraffin and sectioned at 4 μm and stained with H&E for tumor pathologic study. For staining with anti-CC3 antibodies (#9661; Cell Signaling), lung tumor sections were dewaxed, rehydrated, and subjected to high-temperature antigen retrieval—10 minutes of boiling in a pressure cooker in 0.01 M citrate buffer, pH 6.0. Slides were stained overnight at 4° in 1:100 primary antibody. A goat anti-rabbit horseradish peroxidase-conjugated secondary antibody (Vector Laboratories) was used at 1:200 dilution, incubated for 1 hour at room temperature, followed by diaminobenzidine staining (Vector Laboratories). The number of positive cells per tumor area was quantified using Bioquant software from >10 tumors in ≧3 mice per group (2).

[2] = test system: luciferase-tagged KP cells transplanted into immunocompetent recipient mice; assay: Orthotopic lung tumor model, survival and bioluminescence imaging; format: in vivo, mouse
Excerpt: FIG. 6: Imaging bortezomib response and resistance in an orthotopic lung tumor model. (6A) experimental design. Lung cancer cells derived from KP tumors were infected with a retrovirus expressing luciferase and transplanted into immunocompetent recipient mice by tail vein injection. (6B) Kaplan-Meier survival curve of control and bortezomib-treated recipient mice (n=6; P=1.4×10−5). A total of 10,000 cells were transplanted, and treatment started after 35 days. (6C) representative bioluminescence imaging of recipient mice (n=6) treated with vehicle control or bortezomib, as in 6B. D0 refers to the first treatment. Arrows indicate weekly bortezomib regimen.
FIG. 7: The NF-κB inhibitor Bay-117082 leads to lung tumor regression in vivo. (7A) quantitative PCR analysis of NF-κB target gene expression in KP cells treated with 10 μM Bay-117082 for indicated hours. Error bars are SD (n=3). (7B) Bay-117082 treatment leads to lung tumor regression and delays tumor progression in the orthotopic lung tumor model. A total of 50,000 luciferase-tagged KP cells were transplanted into recipient mice (n=6), and treatment was started at 19 days after transplantation (set at D0). Mice were treated with vehicle control or 10 mg/kg Bay-117082 by i.p. injection, and imaged at the indicated time points. Arrows indicate Bay-117082 injections. (7C) Bay-117082 prolongs survival in the KP model (n=6; P=0.008). “i.p. dosing” indicates treatment with 3 doses per week.
At indicated time points, mice were scanned for 15 min under isoflurane anesthesia, using a small animal eXplore Locus microCT (GE Healthcare) at 45-μm resolution, 80 kV, with 450-mA current (47). Images were acquired and processed using GE eXplore software. Bioluminescence imaging was performed as previously described (48). Mice were imaged for 60 seconds, and signals in the lung were quantified using Xenogen software.
To facilitate imaging of the bortezomib treatment response, we adapted a transplantation-based orthotopic lung cancer mouse model (37). As outlined in FIG. 6A, we infected KP cell lines with a retrovirus expressing firefly luciferase. The cells were transplanted into immunocompetent recipient mice by i.v. injection, resulting in the development of in situ lung tumors that could be imaged and quantified by bioluminescence imaging.
To determine whether bortezomib therapy was effective in the orthotopic model, we transplanted 10,000 KP cells into host mice and treated the mice 5 weeks later, either with control or with a weekly 4-dose regimen of bortezomib (37).

[3] = test system: KrasL^St-G12Dwt (low NF-κB) mice; assay: FIG. 19 study, mice with low NF-κB; format: in vivo, mouse; conditions: 1 mg/kg IV bortezomib
Protocol: FIG. 19 is a schetaic diagram showing the experimental conditions and a set of graphs showing the results. Two sets of mice were treated with […] IV bortezomib, Kras^G120;p53^fl/fl (high NF-κB, top panel) or KrasL^St-G12Dwt (low NF-κB, bottom panel). […] The relapsed tumors have high Hmcgs2.
Mice having either high or low levels of NF-κB were treated with […] IV bortezomib and examined for tumor progression, apoptosis and survival. The mice are Kras^G120;p53^fl/fl (high NF-κB) or KrasL^St-G12Dwt (low NF-κB). […] The relapsed tumors have high Hmcgs2.

[4] = cited from earlier work
[5] = orthotopic model, weekly bortezomib

Compound: CC(C)C[C@H](NC(=O)[C@H](Cc1ccccc1)NC(=O)c1cnccn1)B(O)O [bortezomib, N-(2-pyrazine) carbonyl-L-phenylalanine-L-leucine boronic acid]
- tumor regression [1]: did not regress
- apoptotic cells in K-only tumors (K lung tumors): did not detect a substantial number of apoptotic cells
- average survival ([2]; 10,000 KP cells transplanted, weekly 4-dose bortezomib from 5 weeks, control 47.0±2.0 days, P=1.4×10^−5): 64.0 ± 5.4 days
- bioluminescence tumor signal at day 2 and day 4 ([2]; orthotopic model, after first bortezomib treatment): marked tumor regression
- effect of a 4th dose [2, 5]: ineffective
- lung tumor signal after the 2nd and 3rd treatments [2, 5]: still decreased or stabilized
- tumor response, apoptosis and survival (FIG. 19) [3]: no tumor regression, apoptosis and no survival advantage
- half-life in vivo [4]: short half-life
